Results taken from ChEMBL document CHEMBL2375321, “Discovery of 3,3'-diindolylmethanes as potent antileishmanial agents” (Eur J Med Chem, 2013).
Converted amounts (≈) assume the structure as drawn. The source made the active and inactive calls. Unless noted, the rule behind the calls is not given here.

Key:
[1] = test system: Mycobacterium intracellulare; assay: Antibacterial activity against Mycobacterium intracellulare ATCC 23068 by alamar blue assay; assay type: functional, organism-based
Staphylococcus aureus [2] = assay: Antibacterial activity against methicillin-resistant Staphylococcus aureus ATCC 33591 by CLSI method; assay type: functional, organism-based
Staphylococcus aureus [3] = assay: Antibacterial activity against Staphylococcus aureus ATCC 29213 by CLSI method; assay type: functional, organism-based
Vero = assay: Cytotoxicity against african green monkey Vero cells up to 4.6 ug/ml after 48 hrs by neutral red assay; assay type: cell-based; conditions: chlorocebus sabaeus
Plasmodium falciparum = assay: Antimalarial activity against chloroquine-sensitive Plasmodium falciparum D6 assessed as plasmodial LDH activity after 72 hrs; assay type: functional, organism-based; conditions: D6, 72 h
Leishmania donovani [4] = assay: Antileishmanial activity against axenic amastigote of Leishmania donovani after 72 hrs by alamar blue assay; assay type: functional, organism-based
Leishmania donovani [5] = assay: Antileishmanial activity against promastigote of Leishmania donovani after 72 hrs by alamar blue assay; assay type: functional, organism-based; conditions: Leishmania donovani, 72 h; for IC50: read-out: IC50
Cryptococcus neoformans = assay: Antifungal activity against Cryptococcus neoformans ATCC 90113 by CLSI method; assay type: functional, organism-based
Candida albicans = assay: Antifungal activity against Candida albicans ATCC 90028 by CLSI method; assay type: functional, organism-based
Aspergillus fumigatus = assay: Antifungal activity against Aspergillus fumigatus ATCC 204305 by CLSI method; assay type: functional, organism-based
Bacillus subtilis = assay: Antibacterial activity against Bacillus subtilis by CLSI method; assay type: functional
[6] = Leishmania donovani, 72 h, read-out: IC50
[7] = Staphylococcus aureus, ATCC 33591
[8] = Staphylococcus aureus, ATCC 33591, read-out: IC50

Row | Compound | IC50 [1] | MBC [1] | MIC [1] | MBC (Staphylococcus aureus [2]) | IC50 (Staphylococcus aureus [3]) [µM] | MBC (Staphylococcus aureus [3]) | MIC (Staphylococcus aureus [3]) | Activity (Vero) | IC90 (Leishmania donovani [4]; Leishmania donovani, 72 h) [µM] | IC50 (Leishmania donovani [4]; [6]) [µM] | IC90 (Leishmania donovani [5]) [µM] | IC50 (Leishmania donovani [5]) [µM] | IC50 (Cryptococcus neoformans) [µM] | MFC (Cryptococcus neoformans) | MIC (Cryptococcus neoformans) | Activity (Candida albicans) | Activity (Aspergillus fumigatus) | MIC (Staphylococcus aureus [2]; [7]) [µM] | IC50 (Staphylococcus aureus [2]; [8]) [µM] | other results
1 | Clc1cccc(Cl)c1C(c1c[nH]c2ccccc12)c1c[nH]c2ccccc12 | Not Active | inactive | inactive | inactive | 2.36 | 51.3 µM (≈ 20.1 µg/mL) | 6.41 µM (≈ 2.51 µg/mL) | Non-toxic | 81.5 | 48.4 | 90.8 | 80.7 | – | – | – | – | – | – | – | IC50 (Staphylococcus aureus [2]): Not Active; MIC (Staphylococcus aureus [2]): inactive; IC50 (Plasmodium falciparum): 12.1 µM
2 | COc1cc(C(c2c[nH]c3ccc(I)cc23)c2c[nH]c3ccc(I)cc23)ccc1O | Not Active | inactive | inactive | inactive | 1.89 | inactive | 4.03 µM (≈ 2.5 µg/mL) | Non-toxic | 47.2 | 31.6 | 37.9 | 20.8 | 3.92 | inactive | 32.3 µM (≈ 20 µg/mL) | inactive | inactive | 4.03 (≈ 2.5 µg/mL) | 2.11 | –
3 | COc1ccc2[nH]cc(C(c3cc(F)cc(F)c3)c3c[nH]c4ccc(OC)cc34)c2c1 | Not Active | inactive | inactive | inactive | 4.05 | inactive | 11.7 µM (≈ 4.9 µg/mL) | Non-toxic | 78.7 | 49.6 | 65.3 | 26.8 | 18.4 | inactive | 47.9 µM (≈ 20 µg/mL) | inactive | inactive | 11.7 (≈ 4.9 µg/mL) | 6.89 | –
4 | Clc1ccc(C(c2c[nH]c3ccccc23)c2c[nH]c3ccccc23)cc1 | Not Active | inactive | inactive | – | 3.79 | inactive | 7.02 µM (≈ 2.51 µg/mL) | Non-toxic | 77 | 42 | 39 | 26.7 | 5.56 | 14 µM (≈ 5.01 µg/mL) | 14 µM (≈ 5.01 µg/mL) | inactive | inactive | 14 (≈ 5 µg/mL) | 6.12 | MBC (Staphylococcus aureus [2]; [7]): 56.2 µM (≈ 20.1 µg/mL)
5 | O=C1N[C@@H](c2c[nH]c3cc(Br)ccc23)CN=C1c1c[nH]c2cc(Br)ccc12 [HAMACANTHIN A] | – | – | – | – | – | – | 6.45 µM (≈ 3.14 µg/mL) | – | – | – | – | – | – | – | – | – | – | 6.45 (≈ 3.14 µg/mL) | – | MIC (Bacillus subtilis): 3.22 µM (≈ 1.57 µg/mL)
6 | COc1ccc(C(c2c[nH]c3ccccc23)c2c[nH]c3ccccc23)cc1O | Not Active | inactive | inactive | inactive | 7.47 | inactive | 13.6 µM (≈ 5.01 µg/mL) | Non-toxic | 79.5 | 42.2 | 95.6 | 85 | 16.9 | 27.2 µM (≈ 10 µg/mL) | 27.2 µM (≈ 10 µg/mL) | inactive | inactive | 27.2 (≈ 10 µg/mL) | 12.3 | –
7 | Oc1ccc(C(c2c[nH]c3ccc(I)cc23)c2c[nH]c3ccc(I)cc23)cc1 | Not Active | inactive | inactive | – | 2.1 | 33.9 µM (≈ 20 µg/mL) | 4.24 µM (≈ 2.5 µg/mL) | Non-toxic | 52.5 | 39.8 | 53.2 | 19.1 | 1.8 | – | – | inactive | inactive | 2.12 (≈ 1.25 µg/mL) | 1.15 | MBC (Staphylococcus aureus [2]; [7]): 10 µM (≈ 5.9 µg/mL)
8 | Fc1ccc(C(c2c[nH]c3ccccc23)c2c[nH]c3ccccc23)cc1Br | Not Active | inactive | inactive | inactive | 3.76 | inactive | 5.98 µM (≈ 2.51 µg/mL) | Non-toxic | 74.5 | 47.5 | 22.9 | 17.6 | 1.94 | 5.98 µM (≈ 2.51 µg/mL) | 2.99 µM (≈ 1.25 µg/mL) | inactive | inactive | 23.9 (≈ 10 µg/mL) | 9.23 | –
9 | Brc1cccc(C(c2c[nH]c3ccccc23)c2c[nH]c3ccccc23)c1 | Not Active | inactive | inactive | inactive | 3.75 | inactive | 12.5 µM (≈ 5.02 µg/mL) | Non-toxic | 75.6 | 35.9 | 59.4 | 27.4 | 5.33 | 12.5 µM (≈ 5.02 µg/mL) | 12.5 µM (≈ 5.02 µg/mL) | inactive | inactive | 12.5 (≈ 5.02 µg/mL) | 6.3 | –
10 | Oc1ccc(C(c2c[nH]c3ccccc23)c2c[nH]c3ccccc23)cc1 | Not Active | inactive | inactive | inactive | 10.5 | inactive | 29.6 µM (≈ 10 µg/mL) | Non-toxic | 88.9 | 51.3 | 106 | 92.8 | 18.9 | 59.2 µM (≈ 20 µg/mL) | 29.6 µM (≈ 10 µg/mL) | inactive | inactive | 59.2 (≈ 20 µg/mL) | 17.8 | –
11 | COc1ccc(C(c2c[nH]c3ccccc23)c2c[nH]c3ccccc23)cc1 | Not Active | inactive | inactive | inactive | 9.06 | inactive | inactive | Non-toxic | – | – | 106 | 89 | 35.5 | inactive | inactive | inactive | inactive | – | – | IC50 (Staphylococcus aureus [2]): Not Active; MIC (Staphylococcus aureus [2]): inactive; IC50 (Leishmania donovani [4]): Not Active; IC90 (Leishmania donovani [4]): inactive
